# Test results taken from US4882349A, “Pyrrolacetic amides having antiinflammatory activity” (priority 1982, dated 1989).
# Assays:
# [1] = tested on: carrageenin-induced oedema; experiment: carrageenin-induced oedema test (anti-inflammatory activity); format: in vivo, albino male Wistar rats
# [2] = tested on: cough provoked by mechanical stimulation of the tracheal bifurcation mucosa; experiment: antitussive activity, mechanically provoked coughing; format: in vivo, albino Guinea-pigs; conditions: 1 h after administration
# Method in brief: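 Albino guinea-pigs (300 g) with a tracheal Y cannula; coughing provoked by mechanically stimulating the tracheal bifurcation mucosa with a boar's hair.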
# [3] = tested on: phenyl-p-quinone-induced writhing (abdominal contractions); experiment: phenylquinone-induced writhing test (analgesic activity), compound given 30 min before phenyl-p-quinone; format: in vivo, male Wistar rats
# Method in brief: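 Male Wistar rats (110±5 g), fasted 14 h, received test compounds orally or parenterally in 0.5% CMC/saline vehicle 30 min before 2 ml of 0.36% phenyl-p-quinone in 5% ethanol.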
# [4] = tested on: mucus secreted by the respiratory airway; experiment: antisecretory activity, respiratory mucus secretion; format: in vivo, albino male New Zealand rabbits; conditions: vs control group
# Method in brief: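 Male New Zealand rabbits, groups of four, urethane-anaesthetised (1.1 g/kg i.p.) with tracheal Y cannula breathing 100%-humidity air at 39° C. Mucus collected and measured 3 and 6 h post-dose; change expressed as percent difference from vehicle controls.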
# [5] = in vivo; conditions: mouse
# [6] = in vivo; conditions: rat
# [7] = 25 mg/Kg, Table IV (route not given), 2 h
# [8] = 25 mg/Kg, Table IV (route not given), 4 h
# [9] = 25 mg/Kg, Table IV (route not given), 6 h
# [10] = 25 mg/Kg, Table IV (route not given), 24 h
# [11] = 25 mg/Kg, Table IV (route not given), 48 h
# [12] = 25 mg/Kg, Table IV (route not given), 72 h
# [13] = 50 mg/Kg, Table IV (route not given), 2 h
# [14] = 50 mg/Kg, Table IV (route not given), 4 h
# [15] = 50 mg/Kg, Table IV (route not given), 6 h
# [16] = 50 mg/Kg, Table IV (route not given), 24 h
# [17] = 50 mg/Kg, Table IV (route not given), 48 h
# [18] = 50 mg/Kg, Table IV (route not given), 72 h
# [19] = 100 mg/Kg, Table IV (route not given), 2 h
# [20] = 100 mg/Kg, Table IV (route not given), 4 h
# [21] = 100 mg/Kg, Table IV (route not given), 6 h
# [22] = 100 mg/Kg, Table IV (route not given), 24 h
# [23] = 100 mg/Kg, Table IV (route not given), 48 h
# [24] = 100 mg/Kg, Table IV (route not given), 72 h
smiles,measurement,setting,value
"Cc1ccc(C(=O)c2ccc(CC(=O)N3CCOCC3)n2C)cc1 [Compound 3-a, 1-methyl-5-p-toluoylpyrrole-2-N-(4-morpholinyl) acetamide]",oedema % inhibition,"[1]; 25 mg/Kg per os, 2 h",27.1%
same,oedema % inhibition,"[1]; 25 mg/Kg per os, 4 h",29.0%
same,oedema % inhibition,"[1]; 25 mg/Kg per os, 6 h",32.3%
same,oedema % inhibition,"[1]; 25 mg/Kg per os, 24 h",7.1%
same,oedema % inhibition,"[1]; 25 mg/Kg per os, 48 h",0.0%
same,oedema % inhibition,"[1]; 25 mg/Kg per os, 72 h",0.0%
same,oedema % inhibition,[1]; [7],28.9%
same,oedema % inhibition,[1]; [8],32.7%
same,oedema % inhibition,[1]; [9],34.0%
same,oedema % inhibition,[1]; [10],10.1%
same,oedema % inhibition,[1]; [11],0.0%
same,oedema % inhibition,[1]; [12],0.0%
same,oedema % inhibition,"[1]; 50 mg/Kg per os, 2 h",46.0%
same,oedema % inhibition,"[1]; 50 mg/Kg per os, 4 h",49.1%
same,oedema % inhibition,"[1]; 50 mg/Kg per os, 6 h",48.0%
same,oedema % inhibition,"[1]; 50 mg/Kg per os, 24 h",13.4%
same,oedema % inhibition,"[1]; 50 mg/Kg per os, 48 h",0.0%
same,oedema % inhibition,"[1]; 50 mg/Kg per os, 72 h",0.0%
same,oedema % inhibition,[1]; [13],50.7%
same,oedema % inhibition,[1]; [14],48.9%
same,oedema % inhibition,[1]; [15],42.0%
same,oedema % inhibition,[1]; [16],11.2%
same,oedema % inhibition,[1]; [17],0.0%
same,oedema % inhibition,[1]; [18],0.0%
same,oedema % inhibition,"[1]; 100 mg/Kg per os, 2 h",60.0%
same,oedema % inhibition,"[1]; 100 mg/Kg per os, 4 h",55.2%
same,oedema % inhibition,"[1]; 100 mg/Kg per os, 6 h",69.7%
same,oedema % inhibition,"[1]; 100 mg/Kg per os, 24 h",18.1%
same,oedema % inhibition,"[1]; 100 mg/Kg per os, 48 h",0.0%
same,oedema % inhibition,"[1]; 100 mg/Kg per os, 72 h",0.0%
same,oedema % inhibition,[1]; [19],69.8%
same,oedema % inhibition,[1]; [20],69.0%
same,oedema % inhibition,[1]; [21],63.0%
same,oedema % inhibition,[1]; [22],13.1%
same,oedema % inhibition,[1]; [23],0.0%
same,oedema % inhibition,[1]; [24],0.0%
same,"% inhibition, cough amplitude",[2]; 50 mg/Kg i.p.,20%
same,"% inhibition, cough frequency",[2]; 50 mg/Kg i.p.,15%
same,"% inhibition, cough amplitude",[2]; 50 mg/Kg per os,15%
same,"% inhibition, cough frequency",[2]; 50 mg/Kg per os,16%
same,"% inhibition, cough amplitude",[2]; 75 mg/Kg i.p.,30%
same,"% inhibition, cough frequency",[2]; 75 mg/Kg i.p.,16%
same,"% inhibition, cough amplitude",[2]; 75 mg/Kg per os,30%
same,"% inhibition, cough frequency",[2]; 75 mg/Kg per os,18%
same,"% inhibition, cough amplitude",[2]; 100 mg/Kg i.p.,40%
same,"% inhibition, cough frequency",[2]; 100 mg/Kg i.p.,56%
same,"% inhibition, cough amplitude",[2]; 100 mg/Kg per os,35%
same,"% inhibition, cough frequency",[2]; 100 mg/Kg per os,45%
same,% Protection,[3]; 5 mg/Kg i.p.,18.0%
same,% Protection,[3]; 5 mg/Kg per os,16.0%
same,% Protection,[3]; 10 mg/Kg i.p.,48.0%
same,% Protection,[3]; 10 mg/Kg per os,39.0%
same,% Protection,[3]; 20 mg/Kg i.p.,76.0%
same,% Protection,[3]; 20 mg/Kg per os,65.0%
same,% difference in mucus secretion,"[4]; 50 mg/Kg i.p., 3 h",-10%
same,% difference in mucus secretion,"[4]; 50 mg/Kg i.p., 6 h",-7%
same,% difference in mucus secretion,"[4]; 50 mg/Kg per os, 3 h",-7%
same,% difference in mucus secretion,"[4]; 50 mg/Kg per os, 6 h",-8%
same,% difference in mucus secretion,"[4]; 75 mg/Kg i.p., 3 h",-20%
same,% difference in mucus secretion,"[4]; 75 mg/Kg i.p., 6 h",-18%
same,% difference in mucus secretion,"[4]; 75 mg/Kg per os, 3 h",-15%
same,% difference in mucus secretion,"[4]; 75 mg/Kg per os, 6 h",-10%
same,% difference in mucus secretion,"[4]; 100 mg/Kg i.p., 3 h",-38%
same,% difference in mucus secretion,"[4]; 100 mg/Kg i.p., 6 h",-29%
same,% difference in mucus secretion,"[4]; 100 mg/Kg per os, 3 h",-32%
same,% difference in mucus secretion,"[4]; 100 mg/Kg per os, 6 h",-25%
same,LD50,[5]; ip,1500 mg/kg
same,LD50,[5]; po,> 2000 mg/kg
same,LD50,[6]; ip,1370 mg/kg
same,LD50,[6]; po,> 2400 mg/kg
"Cc1ccc(C(=O)c2ccc(CC(=O)N3CCN(C)CC3)n2C)cc1 [Compound 3-b, 1-methyl-5-p-toluoylpyrrole-2-N-[(4-methyl)-1-piperazinyl] acetamide]",oedema % inhibition,"[1]; 25 mg/Kg per os, 2 h",28.1%
same,oedema % inhibition,"[1]; 25 mg/Kg per os, 4 h",33.4%
same,oedema % inhibition,"[1]; 25 mg/Kg per os, 6 h",30.0%
same,oedema % inhibition,"[1]; 25 mg/Kg per os, 24 h",10.2%
same,oedema % inhibition,"[1]; 25 mg/Kg per os, 48 h",0.0%
same,oedema % inhibition,"[1]; 25 mg/Kg per os, 72 h",0.0%
same,oedema % inhibition,[1]; [7],33.2%
same,oedema % inhibition,[1]; [8],36.0%
same,oedema % inhibition,[1]; [9],30.0%
same,oedema % inhibition,[1]; [10],10.0%
same,oedema % inhibition,[1]; [11],0.0%
same,oedema % inhibition,[1]; [12],0.0%
same,oedema % inhibition,"[1]; 50 mg/Kg per os, 2 h",49.1%
same,oedema % inhibition,"[1]; 50 mg/Kg per os, 4 h",48.0%
same,oedema % inhibition,"[1]; 50 mg/Kg per os, 6 h",49.7%
same,oedema % inhibition,"[1]; 50 mg/Kg per os, 24 h",15.2%
same,oedema % inhibition,"[1]; 50 mg/Kg per os, 48 h",0.0%
same,oedema % inhibition,"[1]; 50 mg/Kg per os, 72 h",0.0%
same,oedema % inhibition,[1]; [13],52.3%
same,oedema % inhibition,[1]; [14],55.6%
same,oedema % inhibition,[1]; [15],58.9%
same,oedema % inhibition,[1]; [16],11.2%
same,oedema % inhibition,[1]; [17],0.0%
same,oedema % inhibition,[1]; [18],0.0%
same,oedema % inhibition,"[1]; 100 mg/Kg per os, 2 h",69.7%
same,oedema % inhibition,"[1]; 100 mg/Kg per os, 4 h",68.0%
same,oedema % inhibition,"[1]; 100 mg/Kg per os, 6 h",69.0%
same,oedema % inhibition,"[1]; 100 mg/Kg per os, 24 h",35.0%
same,oedema % inhibition,"[1]; 100 mg/Kg per os, 48 h",8.9%
same,oedema % inhibition,"[1]; 100 mg/Kg per os, 72 h",0.0%
same,oedema % inhibition,[1]; [19],73.4%
same,oedema % inhibition,[1]; [20],77.1%
same,oedema % inhibition,[1]; [21],72.9%
same,oedema % inhibition,[1]; [22],25.6%
same,oedema % inhibition,[1]; [23],1.4%
same,oedema % inhibition,[1]; [24],0.0%
same,"% inhibition, cough amplitude",[2]; 50 mg/Kg i.p.,20%
same,"% inhibition, cough frequency",[2]; 50 mg/Kg i.p.,28%
same,"% inhibition, cough amplitude",[2]; 50 mg/Kg per os,18%
same,"% inhibition, cough frequency",[2]; 50 mg/Kg per os,29%
same,"% inhibition, cough amplitude",[2]; 75 mg/Kg i.p.,30%
same,"% inhibition, cough frequency",[2]; 75 mg/Kg i.p.,20%
same,"% inhibition, cough amplitude",[2]; 75 mg/Kg per os,30%
same,"% inhibition, cough frequency",[2]; 75 mg/Kg per os,18%
same,"% inhibition, cough amplitude",[2]; 100 mg/Kg i.p.,52%
same,"% inhibition, cough frequency",[2]; 100 mg/Kg i.p.,40%
same,"% inhibition, cough amplitude",[2]; 100 mg/Kg per os,45%
same,"% inhibition, cough frequency",[2]; 100 mg/Kg per os,39%
same,% Protection,[3]; 5 mg/Kg i.p.,28.0%
same,% Protection,[3]; 5 mg/Kg per os,20.0%
same,% Protection,[3]; 10 mg/Kg i.p.,50.0%
same,% Protection,[3]; 10 mg/Kg per os,52.0%
same,% Protection,[3]; 20 mg/Kg i.p.,80.3%
same,% Protection,[3]; 20 mg/Kg per os,78.0%
same,% difference in mucus secretion,"[4]; 50 mg/Kg i.p., 3 h",-12%
same,% difference in mucus secretion,"[4]; 50 mg/Kg i.p., 6 h",-10%
same,% difference in mucus secretion,"[4]; 50 mg/Kg per os, 3 h",-9%
same,% difference in mucus secretion,"[4]; 50 mg/Kg per os, 6 h",-5%
same,% difference in mucus secretion,"[4]; 75 mg/Kg i.p., 3 h",-25%
same,% difference in mucus secretion,"[4]; 75 mg/Kg i.p., 6 h",-22%
same,% difference in mucus secretion,"[4]; 75 mg/Kg per os, 3 h",-18%
same,% difference in mucus secretion,"[4]; 75 mg/Kg per os, 6 h",-10%
same,% difference in mucus secretion,"[4]; 100 mg/Kg i.p., 3 h",-40%
same,% difference in mucus secretion,"[4]; 100 mg/Kg i.p., 6 h",-36%
same,% difference in mucus secretion,"[4]; 100 mg/Kg per os, 3 h",-36%
same,% difference in mucus secretion,"[4]; 100 mg/Kg per os, 6 h",-30%
same,LD50,[5]; ip,770 mg/kg
same,LD50,[5]; po,1200 mg/kg
same,LD50,[6]; ip,590 mg/kg
same,LD50,[6]; po,1000 mg/kg
